# Assay results as given in ChEMBL document CHEMBL3872207, “Aromatic heterocyclic esters of podophyllotoxin exert anti-MDR activity in human leukemia K562/ADR cells via ROS/MAPK signaling pathways” (Eur J Med Chem, 2016).
# The source made the active and inactive calls. The calls are words filed in the database; no cut-off is given here.
# Experiments:
# K562/Adr [1] = assay: Induction of apoptosis in human K562/ADR cells assessed as early apoptotic cells at 0.1 uM after 48 hrs by Annexin V-APC/7-AAD staining based flow cytometry (reference value: 2.74%); format: functional
# [2] = Downregulation of CyclinB1 expression in human K562/ADR cells assessed as ratio of CyclinB1 to beta-actin level at 0.1 uM pretreated with MAPK inhibitor U0126 for 1 hr followed by compound addition measured after 48 hrs by Western blot analysis (reference value: 0.77); format: functional, cell-based
# K562/Adr [3] = assay: Induction of apoptosis in human K562/ADR cells assessed as ratio of cleaved PARP to beta-actin level at 0.1 uM pretreated with MAPK inhibitor SP600125 for 1 hr followed by compound addition measured after 48 hrs by Western blot analysis (reference value: 0.04); format: functional
# K562/Adr [4] = assay: Induction of apoptosis in human K562/ADR cells assessed as viable cells at 0.1 uM after 48 hrs by Annexin V-APC/7-AAD staining based flow cytometry (reference value: 95.31%); format: functional; settings: read-out: Activity
# [5] = molecular target: c-Jun N-terminal kinase, JNK (Homo sapiens) (UniProt P45983+P53779+P45984); assay: Induction of JNK phosphorylation in human K562/ADR cells assessed as ratio of phosphorylated JNK to beta-actin level at 0.1 uM pretreated with MAPK inhibitor SP600125 for 1 hr followed by compound addition after 48 hrs by Western blotting method (reference value: 0.46); format: cell-based
# [6] = Potency index, ratio of etoposide IC50 to compound IC50 for antiproliferative activity against human K562/ADR cells; format: functional
# [7] = Cell cycle arrest in human K562/ADR cells assessed as accumulation at S-phase at 0.1 uM measured after 48 hrs by propidium iodide staining-based flow cytometry (reference value: 47.29 +/- 2.22%); format: functional
# K562/Adr [8] = assay: Induction of apoptosis in human K562/ADR cells assessed as membrane blebbing at 0.1 uM measured after 24 hrs by Hoechst33342 staining-based inverted fluorescent microscopic analysis; format: functional, cell-based
# K562/Adr [9] = assay: Induction of apoptosis in human K562/ADR cells assessed as viable cells at 0.1 uM pretreated with MAPK inhibitor U0126 for 1 hr followed by compound addition after 48 hrs by Annexin V-APC/7-AAD staining based flow cytometry (reference value: 95.31%); format: functional; settings: read-out: Activity
# K562/Adr [10] = assay: Induction of apoptosis in human K562/ADR cells assessed as late apoptotic cells at 0.1 uM pretreated with ROS scavenger NAC for 2 hrs followed by compound addition after 48 hrs by Annexin V-APC/7-AAD staining based flow cytometry (reference value: 1.69%); format: functional
# K562/Adr [11] = assay: Induction of apoptosis in human K562/ADR cells assessed as late apoptotic cells at 0.1 uM pretreated with MAPK inhibitor SB203580 for 1 hr followed by compound addition after 48 hrs by Annexin V-APC/7-AAD staining based flow cytometry (reference value: 1.69%); format: functional; design: scale not given: the % may be the effect or the level left
# [12] = Downregulation of P-gp expression in human K562/ADR cells assessed as ratio of P-gp to beta-actin level at 0.1 uM pretreated with MAPK inhibitor SP600125 for 1 hr followed by compound addition measured after 48 hrs by Western blot analysis (reference value: 0.63); format: functional, cell-based
# [13] = Downregulation of CyclinB1 expression in human K562/ADR cells assessed as ratio of CyclinB1 to beta-actin level at 0.1 uM measured after 48 hrs by Western blot analysis (reference value: 0.77); format: functional, cell-based
# K562/Adr [14] = assay: Induction of apoptosis in human K562/ADR cells assessed as ratio of cleaved PARP to beta-actin level at 0.1 uM pretreated with MAPK inhibitor SB203580 for 1 hr followed by compound addition measured after 48 hrs by Western blot analysis (reference value: 0.04); format: functional
# [15] = Downregulation of CDK1 expression in human K562/ADR cells assessed as ratio of CDK1 to beta-actin level at 0.1 uM pretreated with ROS scavenger NAC for 2 hrs followed by compound addition measured after 48 hrs by Western blot analysis (reference value: 0.53); format: functional, cell-based
# K562/Adr [16] = assay: Induction of apoptosis in human K562/ADR cells assessed as ratio of cleaved caspase-8 to beta-actin level at 0.1 uM pretreated with MAPK inhibitor SP600125 for 1 hr followed by compound addition measured after 48 hrs by Western blot analysis (reference value: 0.07); format: functional
# [17] = Downregulation of CDK2 expression in human K562/ADR cells assessed as ratio of CDK2 to beta-actin level at 0.1 uM pretreated with MAPK inhibitor SP600125 for 1 hr followed by compound addition measured after 48 hrs by Western blot analysis (reference value: 0.65); format: functional, cell-based
# K562/Adr [18] = assay: Induction of apoptosis in human K562/ADR cells assessed as ratio of cleaved caspase-8 to beta-actin level at 0.1 uM pretreated with MAPK inhibitor U0126 for 1 hr followed by compound addition measured after 48 hrs by Western blot analysis (reference value: 0.07); format: functional
# [19] = Downregulation of CyclinB1 expression in human K562/ADR cells assessed as ratio of CyclinB1 to beta-actin level at 0.1 uM pretreated with MAPK inhibitor SP600125 for 1 hr followed by compound addition measured after 48 hrs by Western blot analysis (reference value: 0.77); format: functional, cell-based
# [20] = Downregulation of CDK2 expression in human K562/ADR cells assessed as ratio of CDK2 to beta-actin level at 0.1 uM pretreated with MAPK inhibitor SB203580 for 1 hr followed by compound addition measured after 48 hrs by Western blot analysis (reference value: 0.65); format: functional, cell-based
# K562/Adr [21] = assay: Induction of apoptosis in human K562/ADR cells assessed as ratio of cleaved caspase-9 to beta-actin level at 0.1 uM pretreated with MAPK inhibitor SB203580 for 1 hr followed by compound addition measured after 48 hrs by Western blot analysis (reference value: 0.05); format: functional
# [22] = Downregulation of CyclinA expression in human K562/ADR cells assessed as ratio of CyclinA to beta-actin level at 0.1 uM pretreated with MAPK inhibitor U0126 for 1 hr followed by compound addition measured after 48 hrs by Western blot analysis (reference value: 0.64); format: functional, cell-based
# [23] = Potency index, ratio of doxorubicin IC50 to compound IC50 for antiproliferative activity against human K562/ADR cells; format: functional
# [24] = Downregulation of CyclinA expression in human K562/ADR cells assessed as ratio of CyclinA to beta-actin level at 0.1 uM pretreated with MAPK inhibitor SB203580 for 1 hr followed by compound addition measured after 48 hrs by Western blot analysis (reference value: 0.64); format: functional, cell-based
# [25] = Downregulation of CDK1 expression in human K562/ADR cells assessed as ratio of CDK1 to beta-actin level at 0.1 uM measured after 48 hrs by Western blot analysis (reference value: 0.53); format: functional, cell-based
# K562/Adr [26] = assay: Induction of apoptosis in human K562/ADR cells assessed as cell shrinkage at 0.1 uM measured after 24 hrs by Hoechst33342 staining-based inverted fluorescent microscopic analysis; format: functional
compound,measurement,setting,value
COc1cc([C@@H]2c3cc4c(cc3[C@H](OC(=O)c3ccco3)[C@H]3COC(=O)[C@H]23)OCO4)cc(OC)c1OC,Activity,K562/Adr [1],7.92%
same,Ratio,[2],0.51
same,Ratio,K562/Adr [3],0.53
same,viability at 0.1 µM,K562/Adr [4],46.1%
same,Ratio,[5],0.05
same,Ratio IC50,[6],69.093
same,Activity,[7],60.8%
same,Activity,K562/Adr [8],Active
same,viability at 0.1 µM,K562/Adr [9],56.5%
same,Activity,K562/Adr [10],24.34%
same,Activity,K562/Adr [11],30.87%
same,Ratio,[12],0.34
same,Ratio,[13],0.19
same,Ratio,K562/Adr [14],0.48
same,Ratio,[15],0.49
same,Ratio,K562/Adr [16],0.47
same,Ratio,[17],0.22
same,Ratio,K562/Adr [18],0.42
same,Ratio,[19],0.25
same,Ratio,[20],0.24
same,Ratio,K562/Adr [21],0.44
same,Ratio,[22],0.41
same,Ratio IC50,[23],586.843
same,Ratio,[24],0.34
same,Ratio,[25],0.17
same,Activity,K562/Adr [26],Active
